US20250034139A1, “AMINE COMPOUNDS HAVING ANTI-INFLAMMATORY, ANTIFUNGAL, ANTIPARASITIC, AND ANTICANCER ACTIVITY” (PHARMA CINQ, LLC, priority 2013, published 2025)
Converted amounts (≈) assume the structure as drawn.

How the values were obtained:
[1] = system: PC-3 prostate cancer cells; assay: Example T: sensitisation of PC-3 cells to doxorubicin, oxaliplatin, paclitaxel or vincristine, Wst1; type: cell-based, human; details: PC-3 cells, 72 hours; for viability at 0.4 µM: Homo sapiens, compound 0.4 μM alone, Wst1, vehicle = 100, read-out: No Chemo: percent cell survival; for Doxorubicin 3.5 μM: percent cell survival: compound 0.4 μM + doxorubicin 3.5 μM; for Doxorubicin 3.5 μM: percent cell survival / Oxaliplatin 100 μM: percent cell survival / Paclitaxel 50 μM: percent cell survival / Vincristine 100 nM: percent cell survival: chemotherapy agent alone normalized to 100%; for Oxaliplatin 100 μM: percent cell survival: compound 0.4 μM + oxaliplatin 100 μM; for Paclitaxel 50 μM: percent cell survival: compound 0.4 μM + paclitaxel 50 μM; for Vincristine 100 nM: percent cell survival: compound 0.4 μM + vincristine 100 nM
[2] = system: Trichophyton rubrum; assay: Example J: Trichophyton rubrum growth inhibition, scoring by eye; type: cell-based; details: Trichophyton rubrum, 144 h; 6 days at 30° C., tested 6 to 40 μM; read-out: MIC, μM (maximum inhibition concentration, scoring by eye)
Protocol: Trichophyton grown on two agar plates were collected by scraping into 10 ml saline and filtered through 8 μm filters. […] This experiment included some active compounds from previous experiment and added several untested compounds. […] Following table listed the maximum inhibition concentration (MIC) based on scoring by eye. Scrape frozen Trichophyton culture from ATCC vial and suspended in 100 μl PDB, and then plate on a PDA plate. Incubate plate at 30 C for 4 days. The plate was covered almost full. […] Take OD of collected solution at 520 nm and 600 nm: […] Part-II: […] Add 6 μl each of diluted compound solutions per well in triplicates. […] Wrap the plates with […] incubate all plates at 30° C. for 6 days. • Take picture of the plates on KODAK imager with 17 captures of 1.5 sec/capture for total of 25.5 second exposure.

[3] = system: 4T1 murine breast cancer cells; assay: Example S: in vitro anticancer screen, 4T1 cells, Wst1; type: cell-based, mouse; details: Mus musculus, 4T1, 18 h, 18 hr, Wst1; for viability at 1 µM: read-out: 4T1 1 μM, percent of cancer cell survival relative to vehicle treated cells; for viability at 5 µM: read-out: 4T1 5 μM, percent of cancer cell survival relative to vehicle treated cells
Outline: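 4T1 cells seeded at 1×10^4/well were exposed to compound at 1 μM or 5 μM for 18 hr after plating. Wst1 tetrazolium dye was then added for about 2 hr and absorbance read at 450 nm (reference 630 nm). Values are percent survival relative to vehicle-treated cells.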

[4] = system: THP-1 cells; assay: Example D: LPS-triggered THP-1 cell death assay, acute/5-hour and chronic/48-hour; type: cell-based, Human; details: for Viable cell percent change, Chronic/48-hour, Mean: 10 ng/ml LPS, 0.1 μM test compound; for activity relative to AC in the LPS-triggered THP-1 cell death assay, in words: 0.1 μM, 5-hour and 48-hour time points
Protocol: Compounds of the invention were tested at 0.1 μM versus AC in the LPS-triggered THP-1 cell death assay. Both acute/5-hour and chronic/48-hour phases of cell death were assessed. Compounds were screened in batches with DMSO as the negative control and AC as the high activity control.

[5] = system: PC3 human prostate cancer cells; assay: Example S: in vitro anticancer screen, PC-3 cells, Wst1; type: cell-based; details: Homo sapiens, PC-3; 0.4 μM, approximately 20 hours, Wst1; read-out: PC-3, percent of cancer cell survival relative to vehicle treated cells
Outline: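 PC-3 cells, 2×10^4 cells/well, exposed ~20 h to vehicle or compound at 0.4, 0.5 or 2.5 μM as specified per compound. Wst1 dye added for 2 h; absorbance 450 nm (reference 630 nm), triplicates. Values are percent cell survival versus vehicle-treated cells.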

[6] = system: Candida albicans strain 3153; assay: Example H: Candida albicans growth inhibition (OD 600 nm); type: cell-based; details: for MIC: Candida albicans, 3153, 24 hrs at 30° C., YPD, XLfit, read-out: MIC (uM) (99% of inhibition of fungal growth); for IC50: Candida albicans, 3153, read-out: IC50 (uM) (50% inhibition of fungal growth), 24 hrs at 30° C., YPD, XLfit
Outline: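 Growth inhibition computed as % versus DMSO control from OD600 after ~24 h at 30° C. Inoculum: washed overnight YPD culture of strain 3153 at 3.5×10^4 CFU/ml in YPD; final compound concentrations 0, 5, 10, 16, 22, 30, 40 μM, duplicate wells.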

[7] = system: THP-1 cells; assay: Example C: compound screen, viable THP-1 cell count after 5 hours +/- LPS; type: cell-based, Human; details: for ability to inactivate pro-inflammatory THP-1 cells, in words (relative to benchmark AC): LPS-treated THP-1 cells
Text: Background: THP-1 is a human acute myeloid leukemia (AML) cell line that can be induced into a macrophage-like cell with vitamin-D3 (vit-D3). In the macrophage, LPS (lipopolysaccharide; endotoxin) stimulation of toll-like receptor 4 (TLR-4) leads to NF-κB activation and secretion of inflammatory cytokines but also the priming of programmed death pathways through RIP and Caspase 8. The balance of this complex regulatory network is dependent on highly specific kinases, enzymes that require ATP. Disruption of either cytosolic pH or ATP availability/energy level uncouples this control network and the can macrophage shift away from production of inflammatory cytokines towards a programmed death event, which has the net effect of limiting inflammatory damage.

CCCCCCc1ccc(Nc2ccnc3ccccc23)cc1 [AO, N-(4-Hexylphenyl)quinolin-4-amine] was tested, and the viability at 0.4 µM [1] was 35%, the “Doxorubicin 3.5 μM: percent cell survival” value [1] was 80.7% and the “Oxaliplatin 100 μM: percent cell survival” value [1] was 91%. For the same compound, the “Paclitaxel 50 μM: percent cell survival” value [1] was 93.1%, the “Vincristine 100 nM: percent cell survival” value [1] was 91.1% and the MIC [2] was greater than 40 µM. For the same compound, the viability at 1 µM [3] was 28.9%, the viability at 5 µM [3] was 18.6% and the “Viable cell percent change, Chronic/48-hour, Mean” value (“Viable cell percent change” for short) [4] was 25.19%. The viability at 0.4 µM [5] was 35%, the MIC [6] was 84.9 µM (≈ 25.9 µg/mL) and the IC50 [6] was 34.7 µM.

For CCCCCCNC(=O)c1ccc(Nc2ccnc3ccccc23)cc1 [AQ, N-Hexyl-4-(quinolin-4-ylamino)benzamide], the MIC [2] was greater than 40 µM, the viability at 1 µM [3] was 94.8% and the viability at 5 µM [3] was 92.7%. For the same compound, the “Viable cell percent change” value [4] was 24.71% and the IC50 [6] was 41.2 µM.

For CCCCCCOc1ccc(Nc2ccnc3ccccc23)c(F)c1 [BL, N-[2-Fluoro-4-(hexyloxy)phenyl]quinolin-4-amine], the viability at 0.4 µM [1] was 106%, the “Doxorubicin 3.5 μM: percent cell survival” value [1] was 135.5% and the “Oxaliplatin 100 μM: percent cell survival” value [1] was 120%. The “Paclitaxel 50 μM: percent cell survival” value [1] was 141.4%, the “Vincristine 100 nM: percent cell survival” value [1] was 111.2% and the MIC [2] was greater than 40 µM. The “Viable cell percent change” value [4] was 32.33%, the viability at 0.4 µM [5] was 106% and the MIC [6] was 44.8 µM (≈ 15.2 µg/mL). It also gave an IC50 [6] of 33.5 µM.

COCCCCCCCCNc1ccnc2ccccc12 [CJ, N-(8-Methoxyoctyl)quinolin-4-amine] was tested, and the viability at 0.4 µM [1] was 53.7%, the “Doxorubicin 3.5 μM: percent cell survival” value [1] was 18.9% and the “Oxaliplatin 100 μM: percent cell survival” value [1] was 19.7%. The “Paclitaxel 50 μM: percent cell survival” value [1] was 51.7%, the “Vincristine 100 nM: percent cell survival” value [1] was 16.9% and the “Reduction in viable THP-1 cell count (percent change) from 0 hours, Mean ± SE” value ([7]; Compound (0.1 μM), No LPS) was −5.53 ± 3.89%. The “Reduction in viable THP-1 cell count (percent change) from 0 hours, Mean ± SE” value ([7]; Compound (0.1 μM), Plus LPS) was −30.15 ± 4.41%, the “Reduction in viable THP-1 cell count (percent change) from 0 hours, Mean ± SE” value ([7]; Compound (1.0 μM), No LPS) was −6.99 ± 1.55% and the “Reduction in viable THP-1 cell count (percent change) from 0 hours, Mean ± SE” value ([7]; Compound (1.0 μM), Plus LPS) was −41.62 ± 1.80%. The “ability to inactivate pro-inflammatory THP-1 cells, in words (relative to benchmark AC)” value [7] was “higher activity than the active benchmark compound AC”, the viability at 1 µM [3] was 22.6% and the viability at 5 µM [3] was 24.1%. The “Viable cell percent change” value [4] was 15.44%, the “activity relative to AC in the LPS-triggered THP-1 cell death assay, in words” value [4] was “more active than AC at the chronic/48-hour time point” and the viability at 0.4 µM [5] was 53.7%.

With COc1ccc(OCCCCCCNc2ccnc3ccccc23)cc1 [Compound CX, N-[6-(4-Methoxyphenoxy)hexyl]quinolin-4-amine] the viability at 0.4 µM [1] was 45.9%, the “Doxorubicin 3.5 μM: percent cell survival” value [1] was 21.7% and the “Oxaliplatin 100 μM: percent cell survival” value [1] was 22.2%. For the same compound, the “Paclitaxel 50 μM: percent cell survival” value [1] was 48.2%, the “Vincristine 100 nM: percent cell survival” value [1] was 38.1% and the “Reduction in viable THP-1 cell count (percent change) from 0 hours, Mean ± SE” value ([7]; Compound (0.1 μM), No LPS) was −8.00 ± 1.41%. The “Reduction in viable THP-1 cell count (percent change) from 0 hours, Mean ± SE” value ([7]; Compound (0.1 μM), Plus LPS) was −38.09 ± 0.41%, the “Reduction in viable THP-1 cell count (percent change) from 0 hours, Mean ± SE” value ([7]; Compound (1.0 μM), No LPS) was −9.20 ± 3.09% and the “Reduction in viable THP-1 cell count (percent change) from 0 hours, Mean ± SE” value ([7]; Compound (1.0 μM), Plus LPS) was −49.57 ± 2.44%. For the same compound, the “ability to inactivate pro-inflammatory THP-1 cells, in words (relative to benchmark AC)” value [7] was “higher activity than the active benchmark compound AC”, the viability at 1 µM [3] was 25.1% and the viability at 5 µM [3] was 20.7%. For the same compound, the “Viable cell percent change” value [4] was 8.50%, the “activity relative to AC in the LPS-triggered THP-1 cell death assay, in words” value [4] was “more active than AC at the chronic/48-hour time point” and the viability at 0.4 µM [5] was 45.9%.
